Measured values: article PMC4681344, “Selective targeting of the BRG/PB1 bromodomains impairs embryonic and trophoblast stem cell maintenance” (Science Advances, 2015)

Assays:
[1] = test system: 102 cellular receptors as well as 30 enzyme assays; test: Commercial CEREP screening panel
[2] = test system: H3K27me3 at Brg1 and Stat3 target genes in ESCs; test: ChIP of H3K27me3 in ESCs; format: cell-based; conditions: promoters and TSSs, vs PFI-3oMet
Description: ChIP experiments were carried out with Covaris truChIP chromatin shearing reagent according to the manufacturer’s instructions with certain modifications. ESCs were fixed on-plate with 1% formaldehyde in phosphate-buffered saline for 5 min. Cells (10 million) were resuspended in 1 ml of shearing buffer and sonicated (Covaris S220) for 200 cycles per burst, 140 W peak power, 5% duty factor for 15 min in 1-ml Covaris tubes. The supernatant was then diluted to a protein concentration of 1.7 mg ml^−1, and 350 to 500 μg of protein were used for each immunoprecipitation reaction with anti-H3K27me3 (pab-069-050, Diagenode). The targeted gene fragments were amplified with primers used by Ho et al. ([27]).

supercoiled pBR322 DNA = test: DNA unwinding assay; conditions: 1, 5, or 10 μM
Description: DNA incubated with DMSO (Sigma-Aldrich; D8418) in the presence or absence of the enzyme was run as control. After extraction by butanol (Sigma-Aldrich; 281549) and chloroform/isoamyl alcohol 24:1 (Sigma-Aldrich; C0549), the DNA was run in a 1% (w/v) agarose gel (Web Scientific; AGR-500) with a 1-kb DNA ladder (Life Technologies; 10787) for 4 hours at 80 V. The gel was then stained with SYBR Safe for 30 min before ultraviolet visualization (UVP; BioDoc-It Imaging System).

[3] = Stability in aqueous solution; format: physicochemical; conditions: 37°C, read-out: Half-life in aqueous solutions
[4] = test system: embryonic stem cells (CRG8 ESCs); test: ESC stemness and differentiation (microscopy, qRT-PCR); format: cell-based
Description: CRG8 ESCs were maintained in serum-containing media supplemented with LIF (1000 U/ml; ESGRO, ESG1106) on feeder-free gelatin-coated wells. ESC culture media contained Dulbecco’s modified Eagle’s medium/knockout (Invitrogen), 15% ES-qualified fetal bovine serum (Invitrogen), 1% penicillin-streptomycin (Lonza, DE17-602E), 1% L-glutamine (Lonza, BE17-605E), 1% sodium pyruvate (Invitrogen, 11360), 1% β-mercaptoethanol, and 1% nonessential amino acids (Invitrogen, 11140). Differentiation of ESCs was induced in the presence of retinoic acid (Sigma, R2625) by withdrawal of LIF supplementation.
qRT-PCR ESC samples were collected by culturing ESC in stemness conditions in the presence of 1 μM PF1-3 or control compound for 1 or 8 days. ESC-differentiated samples were collected by treating the cells with PF1-3 or control compound 24 hours before differentiation induction. RNA was isolated using RNeasy Mini Kit (Qiagen, 74106) following the manufacturer’s instructions. At least two samples were collected for each group, and each qRT-PCR was run in triplicates. The qRT-PCR data were normalized against the housekeeping genes Gapdh, Ppia, and Hprt and expressed against control compound–treated ESC in stemness conditions. A list of primers is compiled in tables S5 and S6.

[5] = test system: trophoblast stem cells (TSCs); test: TSC differentiation gene expression (RNA-seq, qRT-PCR); format: cell-based, mouse
Description: Derivation and culture of TSCs were performed as previously described ([34]). Shortly, TSCs were cultured in the absence of feeders in medium supplemented with FGF4 (30 ng/ml; R&D Systems, 235-F4-025/CF), heparin (1.2 μg/ml; Sigma, H3149), and 70% conditional medium (harvested from mitomycin-treated primary mouse embryonic fibroblasts). TSC medium contained RPMI 1640 (BD Biosciences, 354230), 20% ES-qualified fetal bovine serum (Invitrogen), 1% penicillin-streptomycin (Lonza, DE17-602E), 1% L-glutamine (Lonza, BE17-605E), 1% sodium pyruvate (Invitrogen, 11360), and 0.1 mM β-mercaptoethanol. To induce differentiation, TSCs were cultured on feeder-free conditions in TSC medium lacking FGF4 and heparin supplementation.
RNA was isolated as for the ESC samples.
RNA-Seq Library synthesis and analysis were performed at the DKFZ sequencing genomics core facility (Heidelberg, Germany). Mapping and bioinformatics analysis were performed using TopHat, EdgeR Gene-E, and HOMER ([35]–[37]). The raw data from the RNA set results are available through Gene Expression Omnibus (GEO) (accession no. GSE65358). Each replicate represents at least 12 million reads, a density sufficient for qualitative analysis of gene expression. The reads were aligned to the mm10 mouse genome, allowing a mismatch of 2%. We used WebGestalt to find affected pathways ([38]).

[6] = molecular target: T1, full-length GFP-tagged BRM in U2OS cells (Homo sapiens, UniProt P51531); test: Fluorescence recovery after photobleaching (FRAP); format: cell-based
T1 construct: constructs encoding GFP fused to the N terminus of full-length BRM; expressed in transfected cells; host or cells: U2OS
T1 sequence (P51531 whole entry, the tested form may be a part): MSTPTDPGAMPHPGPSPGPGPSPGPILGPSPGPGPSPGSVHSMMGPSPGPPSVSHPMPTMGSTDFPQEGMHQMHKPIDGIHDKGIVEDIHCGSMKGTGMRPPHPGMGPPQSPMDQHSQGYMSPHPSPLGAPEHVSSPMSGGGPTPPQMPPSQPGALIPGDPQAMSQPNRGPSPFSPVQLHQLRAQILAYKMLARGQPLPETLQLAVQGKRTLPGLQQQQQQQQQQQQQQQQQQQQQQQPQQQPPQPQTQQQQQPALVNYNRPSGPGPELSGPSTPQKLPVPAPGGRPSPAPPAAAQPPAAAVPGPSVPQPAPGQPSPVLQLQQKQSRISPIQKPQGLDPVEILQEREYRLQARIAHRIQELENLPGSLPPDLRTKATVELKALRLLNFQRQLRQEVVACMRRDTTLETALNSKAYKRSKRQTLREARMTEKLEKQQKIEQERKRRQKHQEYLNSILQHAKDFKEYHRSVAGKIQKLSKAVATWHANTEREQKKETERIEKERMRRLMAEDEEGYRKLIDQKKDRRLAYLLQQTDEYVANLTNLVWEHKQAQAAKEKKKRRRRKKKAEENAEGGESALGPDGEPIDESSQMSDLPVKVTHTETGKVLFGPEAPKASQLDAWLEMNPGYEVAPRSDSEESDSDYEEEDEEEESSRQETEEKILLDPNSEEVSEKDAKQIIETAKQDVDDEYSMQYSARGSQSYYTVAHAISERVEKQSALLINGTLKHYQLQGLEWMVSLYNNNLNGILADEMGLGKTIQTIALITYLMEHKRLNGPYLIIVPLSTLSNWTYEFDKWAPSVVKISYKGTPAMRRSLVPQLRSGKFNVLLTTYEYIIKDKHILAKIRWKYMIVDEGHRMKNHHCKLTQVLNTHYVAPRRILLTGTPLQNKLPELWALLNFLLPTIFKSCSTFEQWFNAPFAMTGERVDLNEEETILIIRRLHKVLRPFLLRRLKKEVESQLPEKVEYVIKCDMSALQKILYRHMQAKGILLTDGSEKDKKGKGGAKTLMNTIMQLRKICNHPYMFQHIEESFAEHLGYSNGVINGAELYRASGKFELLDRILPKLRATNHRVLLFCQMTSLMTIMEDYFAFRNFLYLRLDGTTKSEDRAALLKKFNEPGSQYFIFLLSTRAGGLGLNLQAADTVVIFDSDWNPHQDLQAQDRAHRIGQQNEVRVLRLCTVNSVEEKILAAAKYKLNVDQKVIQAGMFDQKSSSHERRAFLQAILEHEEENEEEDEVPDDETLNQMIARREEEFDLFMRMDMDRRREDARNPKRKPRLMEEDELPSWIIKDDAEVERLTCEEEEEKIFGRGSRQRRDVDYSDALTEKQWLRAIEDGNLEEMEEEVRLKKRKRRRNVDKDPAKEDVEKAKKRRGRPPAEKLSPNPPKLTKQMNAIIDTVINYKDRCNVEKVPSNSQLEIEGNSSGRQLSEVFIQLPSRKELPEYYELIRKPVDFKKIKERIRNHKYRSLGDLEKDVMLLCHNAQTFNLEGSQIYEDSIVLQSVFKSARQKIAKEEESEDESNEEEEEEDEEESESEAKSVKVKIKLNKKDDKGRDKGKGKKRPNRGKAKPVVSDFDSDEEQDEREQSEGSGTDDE
Description: FRAP studies were performed using a protocol modified from previous studies ([24]). In brief, U2OS cells were transfected (FuGENE HD, Roche) with mammalian overexpression constructs encoding GFP fused to the N terminus of full-length BRM. The FRAP and imaging system consisted of a Zeiss LSM 710 laser scanning and control system coupled to an inverted Zeiss Axio Observer.Z1 microscope equipped with a high numerical aperture (1.3) 40× oil immersion objective. Samples were placed in an incubator chamber capable of maintaining temperature and humidity. […] Once an initial scan had been taken, a region of interest corresponding to about 50% of the entire GFP-positive nucleus was empirically selected for bleaching. A time-lapse series was then taken to record GFP recovery using 1% of the power used for bleaching. The image data sets and fluorescence recovery data were exported from ZEN 2009, the microscope control software, into Microsoft Excel to determine the average half-time for full recovery for 10 to 20 cells per treatment point.

[7] = test system: NCI-60 panel of tumor cell lines; test: NCI-60 cell proliferation and survival; format: cell-based; conditions: 10 μM inhibitor
[8] = test system: 48 members of the human BRD family; test: Thermal shift (ΔTm) selectivity screening; format: binding; conditions: profiled against 48 BRDs; compounds at 10 μM
Description: Thermal melting experiments were carried out using an Mx3005P Real-Time PCR machine (Stratagene). Proteins were buffered in 10 mM Hepes (pH 7.5), 500 mM NaCl, and assayed in a 96-well plate at a final concentration of 2 μM in 20-μl volume. Compounds were added at a final concentration of 10 μM. SYPRO Orange (Molecular Probes) was added as a fluorescence probe at a dilution of 1:1000. Excitation and emission filters for the SYPRO Orange dye were set to 465 and 590 nm, respectively. The temperature was raised with a step of 3°C/min from 25° to 96°C, and fluorescence readings were taken at each interval.

[9] = molecular target: T2, fifth bromodomain of PB1 [PB1(5)] (Homo sapiens, UniProt Q86U86); test: Isothermal titration calorimetry (ITC) of SA; format: binding; conditions: 15°C, read-out: KD (dissociation constant)
T2 construct: isothermal titration calorimetry (ITC) with the fifth bromodomain of PB1 [PB1(5)]; made in house
T2 sequence (Q86U86 653-763 limits assumed): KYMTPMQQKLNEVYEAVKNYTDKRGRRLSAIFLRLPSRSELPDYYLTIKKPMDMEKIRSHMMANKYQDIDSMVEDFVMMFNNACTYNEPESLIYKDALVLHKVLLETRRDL
Description: Experiments were carried out on a VP-ITC microcalorimeter (MicroCal). All experiments were performed at 15°C in 50 mM Hepes (pH 7.5), 150 mM NaCl. The titrations were conducted using an initial injection of 2 μl followed by 34 identical injections of 8 μl. The dilution heats were measured on separate experiments and were subtracted from the titration data. Thermodynamic parameters were calculated using ΔG = ΔH − TΔS = −RTlnKB, where ΔG, ΔH, and ΔS are the changes in free energy, enthalpy, and entropy of binding, respectively. In all cases, a single binding site model was used.

BAF BRDs = test: Initial library screening for interaction with BAF BRDs; format: binding
[10] = 4 days of differentiation, vs control compound

For O=C(/C=C/N1C[C@H]2C[C@@H]1CN2c1ccccn1)c1ccccc1O [PFI-3, (E)-1-(2-hydroxyphenyl)-3-((1R,4R)-5-(pyridin-2-yl)-2,5-diazabicyclo[2.2.1]heptan-2-yl)prop-2-en-1-one], the “Interactions in CEREP panel” value [1] was “only interactions against four GPCRs (G protein–coupled receptor) with micromolar affinity”, the “H3K27me3 at Brg1 and Stat3 binding sites” value [2] was “increase of H3K27me3” and the DNA intercalation (supercoiled pBR322 DNA) was “did not intercalate into DNA”. For the same compound, the half-life [3] was greater than 168 h, the “Transcription of stemness genes” value ([4]; 1 μM, 1 and 8 days, qRT-PCR) was “initial up- and subsequent down-regulation of stemness genes” and the “Morphological differentiation of ESCs” value ([4]; 1 μM, 8 days, stemness-maintaining conditions (LIF), vs PFI-3oMet) was “led to visible differentiation”. For the same compound, the Gata4 expression [4, 10] was “not significantly altered”, the Nes expression [4, 10] was “increased” and the “T (brachyury homolog) transcription” value [4, 10] was “at the expense of the brachyury homolog T transcription”. The “Transcription of TSC differentiation markers (Prl3d1, Tpbpa)” value ([5]; 2 μM, differentiation (D4), qRT-PCR) was “marked increase”, the “Levels of Eomes, Brg1, Brm, and Pbrm1/Baf180” value ([5]; qRT-PCR) was “not affected” and the “Prl7d1 and Tpbpa transcription after washout” value ([5]; washout of the inhibitor during differentiation) was “could still be observed after washout of the inhibitor during differentiation of TSCs albeit to a lesser extent”. For the same compound, the “Half-recovery time of wild-type GFP-BRM (FRAP)” value ([6]; 2.5 μM SAHA, compound exposure 1 hour) was “significantly accelerated the half-recovery time”, the “Ability to displace BRM from chromatin after 24 hours” value ([6]; exposure 24 hours, 37°C) was “did not show any loss” and the “Toxicity (cell proliferation and survival)” value [7] was “did not result in significant toxicity for any of the cell lines tested”.

For O=C(O)c1ccccc1O [SA, salicylic acid], the “Selectivity in temperature shift (ΔTm) assay” value [8] was “good selectivity for BRDs present in BRG1/BRM and PB1” and the Kd [9] was 250 µM.

For CCOC(=O)Nc1cc(-c2ccc(C)c(NS(C)(=O)=O)c2)nn2c(C)nnc12 [bromosporine], the “Binding to BAF BRDs” value (BAF BRDs) was “did not exhibit any binding”.
